Experimental data published in PMC3793924, “Targeting Androgen Receptor/Src Complex Impairs the Aggressive Phenotype of Human Fibrosarcoma Cells” (PLoS ONE, 2013).

Assays:
EGFR/AR/Src complex = target: T1, EGFR/AR/Src complex (Homo sapiens, UniProt P12931); assay: Co-immunoprecipitation of EGFR/AR/Src complex in HT1080 cells; format: cell-based; details: quiescent HT1080 cells; for Effect on EGF-induced EGFR/AR/Src complex assembly: EGF 100 ng/ml 10 min, S1 and Ss peptides 1 nM, anti-EGFR immunoprecipitation
T1 construct: endogenous in cells; host or cells: HT1080 human fibrosarcoma cells
Procedure: (§1) Quiescent HT1080 cells were used. […] Casodex (at 10 μM) was used for comparison with the S1 peptide. Upper section in A, Western blot of HT1080 cell lysates with anti-EGFR antibody. […] In B, lysates were immune-precipitated with the anti-Src MAb and Src activity in immune complexes was assayed using acidified enolase, as a substrate. In C, cells on coverslips were left untreated or treated for 18 h with the indicated compounds. After in vivo pulse with BrdU (100 μM), BrdU incorporation was analyzed by IF and expressed as % of total nuclei. Several independent experiments were performed in duplicate and the results were obtained from at least 500 scored cells for each coverslip. Mean and SEM are shown. n represents the number of experiments.
(§2) Lysates (at 2 mg/ml protein concentration) were prepared as described. […] The Src tyrosine kinase activity in immunocomplexes was assayed using enolase (Sigma) as a substrate.

HT1080 cells [1] = assay: BrdU incorporation (DNA synthesis) in quiescent HT1080 cells; format: cell-based, human; details: EGF 100 ng/ml, 18 h; for Inhibition of EGF-induced BrdU incorporation (DNA synthesis): Casodex 10 μM, S1 and Ss peptides 1 nM, BrdU by IF, % of total nuclei
Procedure: Human fibrosarcoma HT1080 cells were used. In A, quiescent cells on coverslips were left un-stimulated or stimulated for 18 h with the indicated compounds. […] After in vivo pulse with BrdU (100 μM; Sigma), BrdU incorporation was analyzed by IF and expressed as % of total nuclei. Several independent experiments were performed in duplicate and the results were derived from at least 400 scored cells for each coverslip. Mean and SEM are shown. n represents the number of experiments. […] In B, xenografts were established in nude male mice as described in Methods. On alternate days, animals were intra-peritoneally injected with vehicle alone (vehicle), or the pure androgen antagonist Casodex (Cx: 0.1 μg/mice; 4µg/Kg body weight), or DHT (DHT: 0,1 μg/mice; 3 μg/Kg body weight) alone. Volumes of HT1080 cell xenografts were measured at the indicated times in two dimensions by a caliper and expressed as tumor mass (mm^3). Mean and SEM are shown. n represents the number of experiments.
as §1

Src tyrosine kinase = target: T2, Src tyrosine kinase (Homo sapiens, UniProt P12931); assay: Src kinase activity in immune complexes from HT1080 cells (enolase substrate); format: cell-based; details: quiescent HT1080 cells, EGF 100 ng/ml 10 min; S1 and Ss peptides 1 nM; Casodex 10 μM
T2 construct: lysates were immune-precipitated with the anti-Src MAb and Src activity in immune complexes was assayed using acidified enolase; endogenous in cells; host or cells: HT1080 human fibrosarcoma cells
Procedure: as §1, §2

NIH3T3 cells [2] = assay: Trans-well migration of NIH3T3 fibroblasts; format: cell-based, mouse; details: 6 h, EGF 100 ng/ml; for Inhibition of EGF-induced motility (Trans-well): quiescent NIH3T3 fibroblasts, Casodex 10 µM, S1 and Ss peptides 10 nM
Procedure: NIH3T3 cells were used. In A, cells were transfected with 3416 or 3424 ARE-Luc constructs with or without hAR-expressing plasmid and then made quiescent as reported in Methods. Cells were left unstimulated or stimulated for 18 h with 10 nM R1881. Luciferase activity was assayed, normalized using beta-gal as an internal control, and expressed as fold induction. Three independent experiments were performed in triplicate. Means and SEM are shown; n represents the number of experiments. […] After in vivo labeling with BrdU (100 μM), BrdU incorporation was analyzed by IF and expressed as % of total cells. Several independent experiments were performed in duplicate and data derived from at least 700 scored cells for each coverslip. Mean and SEM are shown. n represents the number of experiments. […] Quiescent NIH3T3 fibroblasts were used. In C, cells on coverslips were left unstimulated or stimulated for 18 h with the indicated compounds. […] After in vivo pulse with BrdU (100 μM), BrdU incorporation was analyzed by IF and expressed as % of total cells. Several independent experiments were performed in duplicate and the results were derived from at least 500 scored cells for each coverslip. Mean and SEM are shown. n represents the number of experiments. […] The Western blot of MCF-7 cell lysate with the anti-tubulin or the anti-EGFR antibody is shown for comparison. In D, cells were left untreated or treated for 6 h with the indicated compounds. […] Cells were allowed to migrate in collagen pre-coated Trans-well filters. Migrated cells were stained and counted as reported in Methods.

HT1080 cells [3] = assay: Trans-well migration/invasiveness of HT1080 cells; format: cell-based, human; details: quiescent HT1080 cells, collagen-coated Trans-well, 6 h, EGF 100 ng/ml; Casodex 10 μM; S1 and Ss peptides 10 nM
HCT116 cells = assay: Trans-well migration of HCT116 cells; format: cell-based, human; details: quiescent HCT116 cells, 6 h, EGF 100 ng/ml; for Inhibition of EGF-induced motility (Trans-well): Casodex 10 μM, S1 and Ss peptides 10 nM
NIH3T3 cells [4] = assay: BrdU incorporation in NIH3T3 fibroblasts; format: cell-based, mouse; details: EGF 100 ng/ml, 18 h; for Inhibition of EGF-induced BrdU incorporation: quiescent NIH3T3 fibroblasts, Casodex 10 μM, S1 and Ss peptides 1 nM
Procedure: NIH3T3 cells were used. In A, cells were transfected with 3416 or 3424 ARE-Luc constructs with or without hAR-expressing plasmid and then made quiescent as reported in Methods. Cells were left unstimulated or stimulated for 18 h with 10 nM R1881. Luciferase activity was assayed, normalized using beta-gal as an internal control, and expressed as fold induction. Three independent experiments were performed in triplicate. Means and SEM are shown; n represents the number of experiments. […] After in vivo labeling with BrdU (100 μM), BrdU incorporation was analyzed by IF and expressed as % of total cells. Several independent experiments were performed in duplicate and data derived from at least 700 scored cells for each coverslip. Mean and SEM are shown. n represents the number of experiments. […] Quiescent NIH3T3 fibroblasts were used. In C, cells on coverslips were left unstimulated or stimulated for 18 h with the indicated compounds. […] After in vivo pulse with BrdU (100 μM), BrdU incorporation was analyzed by IF and expressed as % of total cells. Several independent experiments were performed in duplicate and the results were derived from at least 500 scored cells for each coverslip. Mean and SEM are shown. n represents the number of experiments. […] The Western blot of MCF-7 cell lysate with the anti-tubulin or the anti-EGFR antibody is shown for comparison. In D, cells were left untreated or treated for 6 h with the indicated compounds. […] Cells were allowed to migrate in collagen pre-coated Trans-well filters. Migrated cells were stained and counted as reported in Methods. Results were derived from several independent experiments, each performed in duplicate. Data are expressed as relative increase. Mean and SEM are shown. n represents the number of experiments. […] (PPTX) Click here for additional data file.

MCF-7 cells = assay: Trans-well migration of MCF-7 cells; format: cell-based, human; details: quiescent MCF-7 cells, 6 h, EGF 100 ng/ml; for Inhibition of EGF-induced motility (transmigration): Casodex 10 μM, S1 and Ss peptides 10 nM
LNCaP cells = assay: Trans-well migration of LNCaP cells; format: cell-based, human; details: quiescent LNCaP cells, 6 h, EGF 100 ng/ml; for Inhibition of EGF-induced motility (transmigration): Casodex 10 μM, S1 and Ss peptides 1 nM

| Compound | Effect on EGF-induced EGFR/AR/Src complex assembly (EGFR/AR/Src complex) | Inhibition of EGF-induced BrdU incorporation (DNA synthesis) (HT1080 cells [1]) | Inhibition of EGF-triggered Src activity stimulation (Src tyrosine kinase) | Inhibition of EGF-induced motility (Trans-well) (NIH3T3 cells [2]) | Inhibition of EGF-induced invasiveness (trans-migration) (HT1080 cells [3]) | Inhibition of EGF-induced motility (Trans-well) (HCT116 cells) | Inhibition of EGF-induced BrdU incorporation (NIH3T3 cells [4]) | Inhibition of EGF-induced motility (transmigration) (MCF-7 cells) | Inhibition of EGF-induced motility (transmigration) (LNCaP cells) | Association of EGF-R with AR and Src upon stimulation (EGFR/AR/Src complex; EGF 100 ng/ml, 10 min) | BrdU incorporation (DNA synthesis) upon stimulation with the compound alone (HT1080 cells [1]; R1881 and DHT 10 nM) | Motility in transmigration assay upon stimulation (MCF-7 cells) | Motility in transmigration assay upon stimulation (LNCaP cells) | Motility upon stimulation (NIH3T3 cells [2]; quiescent NIH3T3 cells) | Motility upon stimulation (HCT116 cells) | BrdU incorporation (DNA synthesis) upon stimulation with the compound alone (NIH3T3 cells [4]; quiescent NIH3T3 cells, R1881 10 nM) |
| --- | --- | --- | --- | --- | --- | --- | --- | --- | --- | --- | --- | --- | --- | --- | --- | --- |
| Ac-HPKPARIPHP-NH2 [Ss peptide] | only slightly affects | only slightly affects | only slightly affects | slightly modifies | not by Ss peptide | does not interfere with the EGF-elicited responses | slightly modifies DNA synthesis | – | – | – | – | – | – | – | – | – |
| CC(O)(CS(=O)(=O)c1ccc(F)cc1)C(=O)Nc1ccc(C#N)c(C(F)(F)F)c1 (stereo not shown) [Casodex] | – | inhibits the EGF-induced BrdU incorporation | This inhibition is comparable to that observed by treatment of cells with 10 μM Casodex | significantly inhibit both the responses | inhibited to a similar extent | similarly inhibit these EGF-elicited responses | significantly inhibit both the responses | inhibited to a similar extent | inhibited to a similar extent | – | – | – | – | – | – | – |
| Ac-PPPHPHARIK-NH2 [S1 peptide] | abolishes AR/Src association with EGF-R | abolishes the mitogenic response elicited by EGF | completely abolishes | significantly inhibit both the responses | inhibited to a similar extent | similarly inhibit these EGF-elicited responses | significantly inhibit both the responses | inhibited to a similar extent | inhibited to a similar extent | – | – | – | – | – | – | – |
| EGF: epidermal growth factor (Roche), used as stimulus at 100 ng/ml | – | – | – | – | – | – | – | – | – | induces association of EGF-R with AR and Src | significantly incorporate BrdU | significantly increases the motility | significantly increases the motility | significantly increases | robustly increases | significantly increases BrdU incorporation |
